Test results as given in patent US20110105523A1, “BIFEPRUNOX DERIVATIVES” (priority 2008, published 2011).

What was measured:
[1] = molecular target: T1, human dopamine D2L receptor (Homo sapiens, UniProt P14416); experiment: Receptor binding, displacement of [3H]-spiperone on CHO cell membranes; conditions: [3H]-spiperone displacement, recombinant human D2L in CHO membranes; s.e.m. in brackets; read-out: pKi value mean ± s.e.m. (converted)
T1 construct: host or cells: CHO-K1
Experimental: The potency of 3′-hydroxy-bifeprunox, 4′-hydroxy-bifeprunox, 3′-sulfate-bifeprunox, 4′-sulfate-bifeprunox and, for comparison, bifeprunox as a ligand on the human dopamine D2L receptor was investigated using a receptor binding assay and determination of functional activity was investigated using a cAMP assay. All compounds were dissolved in DMSO.
The binding of the compounds of the invention to the human D2L receptor was performed using displacement of radioactive-labeled [^3H]-spiperone binding on membranes prepared from Chinese hamster ovary (CHO) cells expressing the recombinant human D2L receptor.
Human dopamine D2L receptors were cloned in CHO-K1 cells and obtained from Dr. D. Grandy, Vollum Institute, Portland, Oreg., USA.
The binding assay has been carried out using [^3H]-spiperone as ligand (see Eur. J. Pharmacol. 46:377-381, 1977). The labeled compound was incubated with or without the test compound, with a preparation from cloned CHO cells carrying the human dopamine D2L receptor. Separation of bound and free ligand was performed by filtration over glassfiber-filters. After two washings, the bound-fraction remained on the filter. Radioactivity trapped on the filter was measured by scintillation counting. Results are expressed as pKi (negative logarithm of the inhibition constant Ki which is calculated form the IC50).

[2] = molecular target: T1, human dopamine D2L receptor; experiment: Adenylate cyclase activity (cAMP assay), inhibition of forskolin-stimulated cAMP accumulation in CHO cells; type: cell-based; conditions: for Conversion of cAMP, % of control (mean (±s.e.m.)): control = forskolin-stimulated cAMP accumulation; for EC50: inhibition of forskolin-induced cAMP accumulation, D2L agonism, read-out: pEC50 mean (±s.e.m.) (converted)
Experimental: All compounds were dissolved in DMSO.
For incubation with test compounds (concentrations 10^−6-10^−10M), confluent cultures grown in 24 wells plates were used. Each condition or substance was routinely tested in quadruplicate. Cells were loaded with 1 μCi [^3H]-adenine in 0.5 ml medium/well. After 2 hours, cultures were washed with 0.5 ml PBS containing […] IBMX and forskolin with or without test compound. After aspiration the reaction was stopped with 1 ml trichloroacetic acid 5% (w/v). […] The extract was passed over Dowex (50W-4 200-400 mesh) and aluminiumoxide columns, eluted with water and 0.1M imidazole (pH=7.5). Eluates were mixed with 7 ml of Insta-gel and radioactivity was counted with a scintillation counter. The conversion of the cAMP fraction as compared to combined radioactivity in both cAMP and ATP fractions, and basal activity was subtracted to correct for spontaneous activity.
Dopamine D2L: reference compound: quinpirole; incubation time: 20 min.
Subsequently, the mean of four observations was taken as an estimate for drug-induced, receptor-mediated effects at specified messenger accumulation, expressed as percentage of control values (forskolin-stimulated cAMP accumulation).
By using the non-linear curve-fitting program XL-FIT mean values were plotted against drug concentration (in molar) and sigmoid curve (four parameter logistic curve) was constructed. The maximal forskolin-induced stimulated conversion was taken as maximum value and the maximal inhibition as minimum and these values were fixed during the fitting process.

T1 sequence (P14416 whole entry): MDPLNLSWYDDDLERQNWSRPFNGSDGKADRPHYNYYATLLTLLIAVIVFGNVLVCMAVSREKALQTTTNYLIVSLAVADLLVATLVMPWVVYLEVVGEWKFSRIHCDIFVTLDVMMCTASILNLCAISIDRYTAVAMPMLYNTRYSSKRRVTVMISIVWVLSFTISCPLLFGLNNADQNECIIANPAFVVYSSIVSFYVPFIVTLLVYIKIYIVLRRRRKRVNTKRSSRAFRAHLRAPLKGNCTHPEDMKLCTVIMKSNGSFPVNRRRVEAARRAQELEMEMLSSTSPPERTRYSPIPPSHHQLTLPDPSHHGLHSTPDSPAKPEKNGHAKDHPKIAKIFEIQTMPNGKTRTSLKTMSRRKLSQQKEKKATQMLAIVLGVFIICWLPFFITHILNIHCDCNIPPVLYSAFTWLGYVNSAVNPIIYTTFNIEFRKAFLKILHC

SMILES: O=c1[nH]c2cccc(N3CCN(Cc4cccc(-c5cccc(OS(=O)(=O)O)c5)c4)CC3)c2o1 [3′-sulfate, 7-[4-(3′-sulfooxy[1,1′-biphenyl]-3-ylmethyl)-1-piperazinyl]-2(3H)-benzoxazolone]
- Ki [1]: 12.6 nM
- PS: mean % stimulation (agonism) at 1 μM [2]: 51%
- Conversion of cAMP, % of control (mean (±s.e.m.)) ([2]; 10^−6M test compound): 49 (6) % of control
- Conversion of cAMP, % of control (mean (±s.e.m.)) ([2]; 10^−7M test compound): 66 (12) % of control
- Conversion of cAMP, % of control (mean (±s.e.m.)) ([2]; 10^−8M test compound): 79 (6) % of control
- Conversion of cAMP, % of control (mean (±s.e.m.)) ([2]; 10^−9M test compound): 93 (9) % of control
- Conversion of cAMP, % of control (mean (±s.e.m.)) ([2]; 10^−10M test compound): 94 (5) % of control
- EC50 [2]: 12.6 nM

SMILES: O=c1[nH]c2cccc(N3CCN(Cc4cccc(-c5cccc(O)c5)c4)CC3)c2o1 [3′-OH, 7-[4-(3′-hydroxy[1,1′-biphenyl]-3-ylmethyl)-1-piperazinyl]-2(3H)-benzoxazolone]
- Ki [1]: 12.6 nM
- PS: mean % stimulation (agonism) at 1 μM [2]: 49%
- Conversion of cAMP, % of control (mean (±s.e.m.)) ([2]; 10^−6M test compound): 51 (10) % of control
- Conversion of cAMP, % of control (mean (±s.e.m.)) ([2]; 10^−7M test compound): 56 (8) % of control
- Conversion of cAMP, % of control (mean (±s.e.m.)) ([2]; 10^−8M test compound): 63 (7) % of control
- Conversion of cAMP, % of control (mean (±s.e.m.)) ([2]; 10^−9M test compound): 70 (6) % of control
- Conversion of cAMP, % of control (mean (±s.e.m.)) ([2]; 10^−10M test compound): 84 (4) % of control
- EC50 [2]: 0.794 nM

SMILES: O=c1[nH]c2cccc(N3CCN(Cc4cccc(-c5ccccc5)c4)CC3)c2o1 [Bifeprunox, 7-[4-([1,1′-biphenyl]-3-ylmethyl1)-1-piperazinyl]-2(3H)-benzoxazolone monomethanesulphonate]
- Ki [1]: 39.8 nM
- PS: mean % stimulation (agonism) at 1 μM [2]: 31%
- Conversion of cAMP, % of control (mean (±s.e.m.)) ([2]; 10^−6M test compound): 69 (10) % of control
- Conversion of cAMP, % of control (mean (±s.e.m.)) ([2]; 10^−7M test compound): 69 (11) % of control
- Conversion of cAMP, % of control (mean (±s.e.m.)) ([2]; 10^−8M test compound): 84 (12) % of control
- Conversion of cAMP, % of control (mean (±s.e.m.)) ([2]; 10^−9M test compound): 94 (13) % of control
- Conversion of cAMP, % of control (mean (±s.e.m.)) ([2]; 10^−10M test compound): 95 (15) % of control
- EC50 [2]: 6.31 nM

SMILES: O=c1[nH]c2cccc(N3CCN(Cc4cccc(-c5ccc(O)cc5)c4)CC3)c2o1 [4′-OH, 7-[4-(4′-hydroxy[1,1′-biphenyl]-3-ylmethyl)-1-piperazinyl]-2(3H)-benzoxazolone]
- Ki [1]: 12.6 nM
- PS: mean % stimulation (agonism) at 1 μM [2]: 55%
- Conversion of cAMP, % of control (mean (±s.e.m.)) ([2]; 10^−6M test compound): 45 (4) % of control
- Conversion of cAMP, % of control (mean (±s.e.m.)) ([2]; 10^−7M test compound): 50 (2) % of control
- Conversion of cAMP, % of control (mean (±s.e.m.)) ([2]; 10^−8M test compound): 58 (4) % of control
- Conversion of cAMP, % of control (mean (±s.e.m.)) ([2]; 10^−9M test compound): 59 (3) % of control
- Conversion of cAMP, % of control (mean (±s.e.m.)) ([2]; 10^−10M test compound): 90 (9) % of control
- EC50 [2]: 0.2 nM

SMILES: O=c1[nH]c2cccc(N3CCN(Cc4cccc(-c5ccc(OS(=O)(=O)O)cc5)c4)CC3)c2o1 [4′-sulfate, 7-[4-(4′-sulfooxy[1,1′-biphenyl]-3-ylmethyl)-1-piperazinyl]-2(3H)-benzoxazolone]
- Ki [1]: 6.31 nM
- PS: mean % stimulation (agonism) at 1 μM [2]: 49%
- Conversion of cAMP, % of control (mean (±s.e.m.)) ([2]; 10^−6M test compound): 51 (16) % of control
- Conversion of cAMP, % of control (mean (±s.e.m.)) ([2]; 10^−7M test compound): 63 (14) % of control
- Conversion of cAMP, % of control (mean (±s.e.m.)) ([2]; 10^−8M test compound): 65 (13) % of control
- Conversion of cAMP, % of control (mean (±s.e.m.)) ([2]; 10^−9M test compound): 72 (13) % of control
- Conversion of cAMP, % of control (mean (±s.e.m.)) ([2]; 10^−10M test compound): 85 (9) % of control
- EC50 [2]: 0.631 nM
